Values belong to the molecule of their own block, whether it stands above or below them. Active and inactive are the calls of the source. The rule behind the calls is not given here.
Tests used:
[1] = molecular target: COP9 signalosome complex subunit 5 (Homo sapiens) (UniProt Q92905); experiment: Induction of PD-L1 degradation in human NCI-H460 cells at 10 uM incubated for 2 days by Western blot analysis; type: cell-based; details: time 2.0 day
[2] = system: HEK-293T; experiment: Antiproliferative activity against HEK293T cells at 10 uM incubated for 4 days; type: toxicity, cell-based; details: human, 96 h, time 4 day
[3] = system: 3T3-L1; experiment: Antiproliferative activity against mouse 3T3-L1 cells at 10 uM incubated for 4 days; type: toxicity, cell-based; details: 3t3-l1, 96 h, time 4 day
[4] = Antiproliferative activity against human HTori-3 cells at 10 uM incubated for 4 days; type: toxicity, cell-based; details: htori-3, 96 h, time 4 day
[5] = system: Lewis lung carcinoma cell line; experiment: Antitumor activity against Lewis lung carcinoma cells xenografted in C57BL/6 mouse model at 24.5 mg/kg, ip administered daily for 8 days relative to control; type: functional; details: 192 h, time 8 day, read-out: TGI
[6] = system: Lewis lung carcinoma cell line; experiment: Antitumor T-cell immune response in Lewis lung carcinoma cells xenografted in C57BL/6 mouse model assessed as increase in ratio of CD8+ to CD4+ T cells in tumor at 24.5 mg/kg, ip administered daily for 8 days by flow cytometry; type: functional, organism-based; details: time 8.0 day
[7] = Drug uptake in human PC-9 cells at 10 uM by fluorescence microscopy; type: ADME, cell-based; details: pc-9, 10 µM
[8] = molecular target: COP9 signalosome complex subunit 5 (Homo sapiens) (UniProt Q92905); experiment: Induction of PD-L1 degradation in human NCI-H460 cells at 10 uM incubated for 24 hrs by Western blot analysis; type: cell-based
[9] = system: Lewis lung carcinoma cell line; experiment: Anticancer activity against Lewis lung carcinoma cells xenografted in C57BL/6 mouse model assessed as tumor growth inhibition at 10 mg/kg, ip administered daily for 10 days; type: functional, organism-based; details: time 10.0 day
[10] = system: Lewis lung carcinoma cell line; experiment: Anticancer activity against Lewis lung carcinoma cells xenografted in C57BL/6 mouse model at 10 mg/kg, ip administered daily for 10 days relative to control; type: functional; details: 240 h, time 10 day, read-out: TGI
[11] = system: Lewis lung carcinoma cell line; experiment: Antitumor T-cell immune response in Lewis lung carcinoma cells xenografted in C57BL/6 mouse model assessed as decrease in CD3+ CD4+ population in CD45+ T cells in tumor at 10 mg/kg, ip administered daily for 10 days by flow cytometry; type: functional, organism-based; details: time 10.0 day
[12] = system: Lewis lung carcinoma cell line; experiment: Antitumor T-cell immune response in Lewis lung carcinoma cells xenografted in C57BL/6 mouse model assessed as increase in CD3+ CD8+ infiltration in CD45+ T cells in tumor at 10 mg/kg, ip administered daily for 10 days by flow cytometry; type: functional, organism-based; details: time 10.0 day
[13] = system: Lewis lung carcinoma cell line; experiment: Antitumor T-cell immune response in Lewis lung carcinoma cells xenografted in C57BL/6 mouse model assessed as increase in ratio of CD8+ to CD4+ T cells in tumor at 10 mg/kg, ip administered daily for 10 days by flow cytometry; type: functional, organism-based; details: time 10.0 day
[14] = system: Lewis lung carcinoma cell line; experiment: Antitumor T-cell immune response in Lewis lung carcinoma cells xenografted in C57BL/6 mouse model assessed as increase in IFN-gamma level in tumor at 10 mg/kg, ip administered daily for 10 days by ELISA; type: functional, organism-based; details: time 10.0 day
[15] = system: Lewis lung carcinoma cell line; experiment: Antitumor T-cell immune response in Lewis lung carcinoma cells xenografted in C57BL/6 mouse model assessed as increase in TNF-alpha level in tumor at 10 mg/kg, ip administered daily for 10 days by ELISA; type: functional, organism-based; details: time 10.0 day
[16] = system: Lewis lung carcinoma cell line; experiment: Antitumor T-cell immune response in Lewis lung carcinoma cells xenografted in C57BL/6 mouse model assessed as increase in GrB level in tumor at 10 mg/kg, ip administered daily for 10 days by ELISA; type: functional, organism-based; details: time 10.0 day
[17] = Toxicity in C57BL/6 mouse model xenografted with […] cells assessed as body weight loss at 10 mg/kg, ip administered daily for 10 days; type: organism-based; details: in vivo, 240 h, time 10 day
[18] = Toxicity in C57BL/6 mouse model xenografted with […] cells assessed as obvious damage in heart at 10 mg/kg, ip administered daily for 10 days by H and E staining based analysis; type: organism-based; details: in vivo, 240 h, time 10 day
[19] = Toxicity in C57BL/6 mouse model xenografted with […] cells assessed as obvious damage in liver at 10 mg/kg, ip administered daily for 10 days by H and E staining based analysis; type: organism-based; details: in vivo, 240 h, time 10 day
[20] = Toxicity in C57BL/6 mouse model xenografted with […] cells assessed as obvious damage in lung at 10 mg/kg, ip administered daily for 10 days by H and E staining based analysis; type: organism-based; details: in vivo, 240 h, time 10 day
[21] = Toxicity in C57BL/6 mouse model xenografted with […] cells assessed as obvious damage in spleen at 10 mg/kg, ip administered daily for 10 days by H and E staining based analysis; type: organism-based; details: in vivo, 240 h, time 10 day
[22] = Toxicity in C57BL/6 mouse model xenografted with […] cells assessed as obvious damage in kidney at 10 mg/kg, ip administered daily for 10 days by H and E staining based analysis; type: organism-based; details: in vivo, 240 h, time 10 day
[23] = Toxicity in C57BL/6 mouse model xenografted with […] cells assessed as change in ALT level at 10 mg/kg, ip administered daily for 10 days; type: organism-based, Blood; details: in vivo, 240 h, time 10 day
[24] = Toxicity in C57BL/6 mouse model xenografted with […] cells assessed as change in AST level at 10 mg/kg, ip administered daily for 10 days; type: organism-based, Blood; details: in vivo, 240 h, time 10 day
[25] = Toxicity in C57BL/6 mouse model xenografted with […] cells assessed as change in serum creatinine level at 10 mg/kg, ip administered daily for 10 days; type: organism-based; details: in vivo, 240 h, time 10 day
[26] = Toxicity in C57BL/6 mouse model xenografted with […] cells assessed as change in BUN level at 10 mg/kg, ip administered daily for 10 days; type: organism-based, Blood; details: in vivo, 240 h, time 10 day
[27] = system: Mus musculus; experiment: Biodistribution in C57BL/6 mouse model bearing […] lung carcinoma cells assessed as increase in fluorescence signal in tumor at 2 mg/kg, iv measured 4 hrs post-injection by IVIS analysis; type: ADME, organism-based; details: in vivo
[28] = molecular target: COP9 signalosome complex subunit 5 (Homo sapiens) (UniProt Q92905); experiment: Induction of PD-L1 degradation in human NCI-H460 cells at 10 uM by Western blot analysis; type: cell-based; details: time <= 36.0 hrs

Sequence of COP9 signalosome complex subunit 5 (Homo sapiens) (Q92905 2-334 limits assumed, one chain of several): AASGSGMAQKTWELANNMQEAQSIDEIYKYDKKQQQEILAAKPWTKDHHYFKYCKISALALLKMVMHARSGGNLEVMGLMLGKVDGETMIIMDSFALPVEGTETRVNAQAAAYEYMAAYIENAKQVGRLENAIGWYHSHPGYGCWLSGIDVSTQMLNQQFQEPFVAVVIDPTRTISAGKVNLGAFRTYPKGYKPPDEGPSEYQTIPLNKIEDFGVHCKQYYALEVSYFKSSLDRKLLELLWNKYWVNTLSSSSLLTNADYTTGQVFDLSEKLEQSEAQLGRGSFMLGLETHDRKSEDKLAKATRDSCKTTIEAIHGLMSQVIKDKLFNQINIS

SMILES: COc1cc2c(cc1OC)-c1cc3ccc(OC)c(OCCCCCN)c3c[n+]1CC2.[Cl-]
Drug uptake [7]: Time-dependent-effect | Activity [8]: Active | Activity [9]: Active | inhibition in vivo at 10 mg/kg [10]: 68% | Activity [11]: Active | Activity [12]: Active | Activity [13]: Active | Activity [14]: Active | Activity [15]: Active | Activity [16]: Active | Activity [17]: Non-toxic | Activity [18]: Non-toxic | Activity [19]: Non-toxic | Activity [20]: Non-toxic | Activity [21]: Non-toxic | Activity [22]: Non-toxic | Activity [23]: Non-toxic | Activity [24]: Non-toxic | Activity [25]: Non-toxic | Activity [26]: Non-toxic

SMILES: COc1ccc2cc3[n+](cc2c1OCCOCCOCCN)CCc1cc2c(cc1-3)OCO2.[Cl-]
Drug uptake [7]: Time-dependent-effect | Activity [8]: Active

SMILES: COc1ccc2cc3[n+](cc2c1OCCN)CCc1cc2c(cc1-3)OCO2.[Cl-]
Drug uptake [7]: Time-dependent-effect | Activity [8]: inactive

SMILES: COc1cc2c(cc1OC)-c1cc3ccc(OC)c(OCCNC(=O)CCCC[C@@H]4SC[C@@H]5NC(=O)N[C@@H]54)c3c[n+]1CC2
Activity [28]: Active

SMILES: COc1cc2c(cc1OC)-c1cc3ccc(OC)c(OC)c3c[n+]1CC2.[Cl-] [PALMATINE CHLORIDE]
Drug uptake [7]: Time-dependent-effect | Activity [8]: Active | Activity [9]: Active; Highest Efficacy Of Tumor Growth Suppression Among Pmt Derivatives | Activity [11]: Active | Activity [12]: Active | Activity [13]: Active | Activity [14]: Active | Activity [15]: Active | Activity [16]: Active | Activity [17]: Non-toxic | Activity [18]: Non-toxic | Activity [19]: Non-toxic | Activity [20]: Non-toxic | Activity [21]: Non-toxic | Activity [22]: Non-toxic | Activity [23]: Non-toxic | Activity [24]: Non-toxic | Activity [25]: Non-toxic | Activity [26]: Non-toxic

SMILES: COc1cc2c(cc1OC)-c1cc3ccc(OC)c(OCCNC(=O)OCc4ccc(SSC[C@H](N)C(=O)NCCCCCC(=O)N[C@@H](CC(N)=O)C(=O)N[C@@H](Cc5ccc(O)cc5)C(=O)N[C@@H](CO)C(=O)N[C@@H](CCCCN)C(=O)N5CCC[C@H]5C(=O)N[C@H](C(=O)N[C@@H](CC(=O)O)C(=O)N[C@@H](CCCNC(=N)N)C(=O)N[C@@H](CCC(N)=O)C(=O)N[C@@H](Cc5ccc(O)cc5)C(=O)N[C@@H](Cc5cnc[nH]5)C(=O)N[C@@H](Cc5ccccc5)C(=O)O)[C@@H](C)O)cc4)c3c[n+]1CC2.[Cl-]
Activity [1]: Active | Activity [2]: Toxic | Activity [3]: Toxic | Activity [4]: Toxic

Second part, led by results:

Activity [1]: inactive
SMILES: C[C@@H](O)[C@H](NC(=O)[C@@H]1CCCN1C(=O)[C@H](CCCCN)NC(=O)[C@H](CO)NC(=O)[C@H](Cc1ccc(O)cc1)NC(=O)[C@H](CC(N)=O)NC(=O)CCCCCNC(=O)[C@@H](N)CS)C(=O)N[C@@H](CC(=O)O)C(=O)N[C@@H](CCCNC(=N)N)C(=O)N[C@@H](CCC(N)=O)C(=O)N[C@@H](Cc1ccc(O)cc1)C(=O)N[C@@H](Cc1cnc[nH]1)C(=O)N[C@@H](Cc1ccccc1)C(=O)O
Activity [2]: Non-toxic | Activity [3]: Non-toxic | Activity [4]: Non-toxic | inhibition in vivo at 24.5 mg/kg [5]: 37% | Activity [6]: Active

Drug uptake [7]: Time-dependent-effect | Activity [8]: Active
SMILES: COc1ccc2cc3[n+](cc2c1OCCCCCN)CCc1cc2c(cc1-3)OCO2.[Cl-]

Drug uptake [7]: Time-dependent-effect | Activity [8]: Active
SMILES: COc1cc2c(cc1OC)-c1cc3ccc(OC)c(OCCCN)c3c[n+]1CC2.[Cl-]
Activity [9]: Active | inhibition in vivo at 10 mg/kg [10]: 65% | Activity [11]: Active | Activity [12]: Active | Activity [13]: Active | Activity [14]: Active | Activity [15]: Active | Activity [16]: Active | Activity [17]: Non-toxic | Activity [18]: Non-toxic | Activity [19]: Non-toxic | Activity [20]: Non-toxic | Activity [21]: Non-toxic | Activity [22]: Non-toxic | Activity [23]: Non-toxic | Activity [24]: Non-toxic | Activity [25]: Non-toxic | Activity [26]: Non-toxic

Drug uptake [27]: Active
SMILES: CCN1/C(=C/C=C/C=C/C2=[N+](CCCCCC(=O)NCCN3C(=O)CC(SC[C@H](N)C(=O)NCCCCCC(=O)N[C@@H](CC(N)=O)C(=O)N[C@@H](Cc4ccc(O)cc4)C(=O)N[C@@H](CO)C(=O)N[C@@H](CCCCN)C(=O)N4CCC[C@H]4C(=O)N[C@H](C(=O)N[C@@H](CC(=O)O)C(=O)N[C@@H](CCCNC(=N)N)C(=O)N[C@@H](CCC(N)=O)C(=O)N[C@@H](Cc4ccc(O)cc4)C(=O)N[C@@H](Cc4cnc[nH]4)C(=O)N[C@@H](Cc4ccccc4)C(=O)O)[C@@H](C)O)C3=O)c3ccc(S(=O)(=O)O)cc3C2(C)C)C(C)(C)c2cc(S(=O)(=O)O)ccc21 (stereo partly drawn)

Drug uptake [7]: Time-dependent-effect | Activity [8]: Active
SMILES: COc1ccc2cc3[n+](cc2c1OCCCN)CCc1cc2c(cc1-3)OCO2.[Cl-]

Drug uptake [7]: Time-dependent-effect | Activity [8]: Active
SMILES: COc1ccc2cc3[n+](cc2c1OC)CCc1cc2c(cc1-3)OCO2.[Cl-] [BERBERINE CHLORIDE]

Drug uptake [7]: Time-dependent-effect | Activity [8]: Active
SMILES: COc1cc2c(cc1OC)-c1cc3ccc(OC)c(OCCOCCOCCN)c3c[n+]1CC2.[Cl-]

— ChEMBL document CHEMBL6092191, “Advancing Cancer Immunotherapy through Engineering New PD-L1 Degraders: A Comprehensive Study from Small Molecules to PD-L1-Specific Peptide-Drug Conjugates” (J Med Chem, 2024)
